Assay results as given in US20260373127A1, “USE OF DIHYDROBERBERINE OR ITS DERIVATIVES FOR REGULATING GLP-1” (NANJING NUTRABUILDING BIO-TECH CO., LTD., priority 2024, published 2026).

How the values were obtained:
[1] = Body composition analysis (fat content), 8-week mouse study; type: in vivo, mice; conditions: 1.5 mg/kg daily intragastric, 8 weeks
Protocol: (§1) At the beginning of the experiment, the mice were divided randomly into control mice (Group 1, n=8), HFD group (Group 2, n=8), HFD+DHB group (Group 3, n=8) and NC+DHB group (Group 4, n=8). The dosage of DHB supplementation is 1.5 mg/kg. The group 1 is the control group and is given the normal chow; the group 2 is the high-fat mouse and continue high fat diet for 8 weeks; the group 3 also continued to eat a high-fat diet and received daily intragastric administration of sample for 8 weeks; the group 4 is given the normal chow and received daily intragastric administration of sample for 8 weeks. Record the body fat and weight of each group of mice every week. Complete Oral glucose tolerance test (OGTT)/Insulin intraperitoneal tolerance test (IPTT) on the last day of week 8, then execute the mice and take serum −80 °C for storage.
Body composition analysis: During the experiment, the fat mass and lean mass was measured by Nuclear Magnetic Resonance Body Composition Analyzer once a week.

[2] = Fasting blood glucose in another 14-week mice experiment; type: in vivo; conditions: 35 mg/kg, at week 13
[3] = Change of body weight, 8-week mouse study; type: in vivo, mice; conditions: for body weight: DHB 1.5 mg/kg daily intragastric
Protocol: as §1
Change of body weight: Weigh once a week at a fixed time from beginning of the experiment.

[4] = Oral glucose tolerance test (OGTT); type: in vivo, mice
Protocol: as §1
(§2) Measurement of Blood Glucose: Oral glucose tolerance test (OGTT): At week 16th of the experiment, after fasting for 15 h, Glucose was given […] (2 g/kg), and blood Glucose was measured at 0, 15, 30, 60, 90, 120 mins. Insulin intraperitoneal tolerance test (IPTT): At week 16th of the experiment, after fasting for 15h, insulin (1U/kg) was injected intraperitoneally and blood glucose was measured at 0, 15, 30, 60, 90, 120 mins.

GLP-1 [5] = experiment: GLP-1 in another 14-week mice experiment; type: in vivo; conditions: 35 mg/kg, at week 14
[6] = Insulin intraperitoneal tolerance test (IPTT); type: in vivo, mice
Protocol: as §1, §2

[7] = Body weight in another 14-week mice experiment; type: in vivo; conditions: 35 mg/kg
[8] = Serum lipids (TC, TG, LDL, HDL) by ELISA; type: in vivo, mice
Protocol: as §1
(§3) Serum detection by ELISA: At week 8th of the experiment, the whole blood is extracted by removing the eyeball. The serum was acquired after centrifugation (10000 rpm 15 mins), stored at −80 °C for later use. Determinate the concentration of insulin (INS), cholesterol (TC), triglycerides (TG), LDL (low density lipoprotein), HDL (high density lipoprotein), GLP-1 in serum by ELISA kits.

[9] = Acute intervention study on appetite measures in human; type: in vivo; conditions: single 200 mg dose
Weight of the fat pad = type: in vivo, mice; conditions: 1.5 mg/kg; result in words
Protocol: as §1
Weight of the fat pad: At the 17th week, the mice were sacrificed, and the fat pads (subcutaneous, epididymis and perirenal) were dissected, photographed and weighed.

insulin (INS) = experiment: Serum insulin (INS) by ELISA; type: in vivo, mice; conditions: 1.5 mg/kg; result in words
Protocol: as §1, §3

GLP-1 [10] = experiment: Serum GLP-1 by ELISA; type: in vivo, mice; conditions: 1.5 mg/kg; result in words
Protocol: as §1, §3

[11] = HFD+DHB group, 1.5 mg/kg daily intragastric, 8 weeks
[12] = NC+DHB group, 1.5 mg/kg daily intragastric, 8 weeks

SMILES: COc1ccc2c(c1OC)CN1CCc3cc4c(cc3C1=C2)OCO4 [DHB, dihydroberberine]
- decrease of fat content compared with HFD group ([1]; HFD+DHB group (Group 3)): approximately 19%
- decrease of fat content compared with control mice ([1]; NC+DHB group (Group 4)): ~35%
- decrease of fasting blood glucose compared with untreated control group (HFD group) [2]: about 16%
- body weight curve ([3]; DHB groups, 1.5 mg/kg, 8 weeks, result in words): helpful in inhibiting high fat induced obesity
- decrease of body weight compared with HFD group [3, 11]: 9.84%
- body weight ([3]; HFD+DHB group, 8 weeks, HFD group 37 g): 33.36 g
- decrease of body weight compared with NC group ([3]; NC+DHB group, 1.5 mg/kg daily intragastric, at the 8th week): 7.75%
- body weight ([3]; NC+DHB group, 8 weeks, NC group 33.96 g): 31.33 g
- blood glucose tolerance relative to mice without DHB supplementation ([4]; 1.5 mg/kg, result in words): improve the blood glucose and insulin tolerance
- decrease of AUC of OGTT compared with HFD group ([4]; HFD+DHB group (Group 3), 1.5 mg/kg daily intragastric, glucose 2 g/kg, 0-120 mins): approximately 19%
- decrease of AUC of OGTT compared with control mice ([4]; NC+DHB group (Group 4), 1.5 mg/kg daily intragastric, glucose 2 g/kg, 0-120 mins): approximately 10%
- increase of GLP-1 compared with untreated control group (HFD) (GLP-1 [5]): 165%
- insulin tolerance relative to mice without DHB supplementation ([6]; 1.5 mg/kg, result in words): improve the blood glucose and insulin tolerance
- decrease of AUC of IPTT compared with HFD group ([6]; HFD+DHB group (Group 3), 1.5 mg/kg daily intragastric, insulin 1U/kg i.p., 0-120 mins): about 27%
- decrease of AUC of IPTT compared with control mice ([6]; NC+DHB group (Group 4), 1.5 mg/kg daily intragastric, insulin 1U/kg i.p., 0-120 mins): approximately 21%
- benefits over time ([7]; 14-week mice experiment, result in words): Benefits intensified over time rather than plateauing
- weight loss compared with untreated control group (HFD group) ([7]; by week 7): about 15%
- weight loss compared with untreated control group (HFD group) ([7]; by week 13): about 33%
- serum HDL relative to mice without DHB supplementation ([8]; 1.5 mg/kg, result in words): significantly increase
- serum LDL relative to mice without DHB supplementation ([8]; 1.5 mg/kg, result in words): decrease
- serum TC relative to mice without DHB supplementation ([8]; 1.5 mg/kg, result in words): decrease
- serum TG relative to mice without DHB supplementation ([8]; 1.5 mg/kg, result in words): decrease
- decrease of LDL compared with HFD group [8, 11]: 32.3%
- increase in serum HDL compared with HFD group [8, 11]: 19%
- increase of ratio of HDL/LDL compared with HFD group [8, 11]: 76%
- reduction in serum TG compared with HFD group [8, 11]: 26.1%
- reduction of blood TC compared with HFD group [8, 11]: 20.6%
- decrease of LDL compared with NC group [8, 12]: 18.3%
- increase in serum HDL compared with NC group [8, 12]: 8.8%
- increase of ratio of HDL/LDL compared with NC group [8, 12]: 33%
- reduction in serum TG compared with NC group [8, 12]: 13.2%
- reduction of blood TC compared with NC group [8, 12]: 9.8%
- subjective appetite [9]: decreases subjective appetite
- composite appetite score ([9]; vs placebo): beat placebo
- desire to eat ([9]; vs placebo): beat placebo
- fullness ([9]; vs placebo): beat placebo
- hunger ([9]; vs placebo): beat placebo
- prospective food consumption ([9]; vs placebo): beat placebo
- pararenal fat pad weight relative to mice without DHB supplementation (Weight of the fat pad): significantly increase
- serum INS relative to mice without DHB supplementation (insulin (INS)): decrease
- serum GLP-1 relative to mice without DHB supplementation (GLP-1 [10]): significantly increase
